Data: article PMC5390467, “Novel lead structures with both Plasmodium falciparum gametocytocidal and asexual blood stage activity identified from high throughput compound screening” (Malaria Journal, 2017)

Assays:
[1] = system: P. falciparum NF54 asexual parasites; assay: asexual parasite growth inhibition assay (SYBR Green); assay type: cell-based, Plasmodium falciparum; settings: 72 h, mean ± SD, n = 3
Description: (§1) Asexual parasites of P. falciparum strain NF54 were cultured as described previously. Briefly, parasites were maintained in RPMI 1640 medium containing 10% positive human serum + erythrocytes (5% haematocrit), 2.5% sodium bicarbonate and 11 µg/mL gentamicin at 37 °C with 5% CO2, 5% O2 and 90% N2. Gametocyte cultures were set up at 0.1% parasitaemia and on days 9–10 treated with 50 mM N-acetylglucosamine (NAG) to block further asexual growth. Stage III–V gametocytes were isolated by Percoll density gradient centrifugation on day 12 and returned to culture for 24 h before being used in the assay. At the time of the assay over 73% of the gametocytes were stage IV or V (Additional file 1). HepG2 cells (ATCC, cat. no. 77400) were cultured in 175-cm^2 tissue culture flasks with 30 ml growth medium at 37 °C in a 5% CO2 and 5% O2 humidified atmosphere. Growth medium was made with Dulbecco’s Modified Eagle Medium with 10% fetal bovine serum (FBS). Growth medium was replaced every other day and cells were passaged at 75% confluence.
Drug activity on asexual stage parasites was tested using a SYBR Green assay as described previously. Briefly, 2.5 μL/well complete culture medium was dispensed into each well of 1536-well plates using the Multidrop Combi followed by 23 nL compound transferring using the NX-TR Pintool. Parasites were diluted to 0.5% parasitaemia in complete culture medium with 2% haematocrit and drugs diluted in DMSO (≤0.5%). The pre-diluted parasites were dispensed into a 1536-well plate (2.5 μL/well). After 72 h incubation under the standard culture conditions, 5 μL/well of lysis buffer containing SYBR Green I was added to the parasite culture and incubated for 30 min at room temperature. The fluorescence of each well was measured in a fluorescence detection mode (Ex = 490 nm, Em = 520 nm) using a ViewLux plate reader (PerkinElmer).

[2] = system: HepG2 cells; assay: HepG2 cytotoxicity assay (AlamarBlue); assay type: cell-based, human; settings: for HepG2, IC50 (dash = less than 25% cytotoxicity) / cytotoxicity at 46 µM / IC50: HepG2 cells, 72 h, AlamarBlue; for HepG2, IC50 (dash = less than 25% cytotoxicity) / cytotoxicity at 46 µM: up to 46 µM; for cytotoxicity at 46 µM: Homo sapiens, read-out: HepG2, IC50 (dash = less than 25% cytotoxicity); for IC50 / maximum response, HepG2 cytotoxicity: titration 0.001 to 46 µM; for IC50: mean ± SD, n = 3
Description: as §1
Drug activity on HepG2 was tested using an AlamarBlue assay as previously described. Briefly, 5 μL/well of HepG2 cells were dispensed with a seeding density of 1000 cells/well using the Multidrop Combi. 23 nL compound was transferred using the NX-TR Pintool. After 72 h incubation under the standard culture condition, 5 μL/well of 2X AlamarBlue dye was added to the cells, the plates were incubated for 2 h at 37 °C with 5% CO2 and then were read in a fluorescence detection mode (Ex = 525 nm, Em = 598 nm) on a ViewLux plate reader.

[3] = system: P. falciparum NF54 gametocytes; assay: gametocyte viability assay (AlamarBlue); assay type: cell-based, Plasmodium falciparum; settings: for Asexual/Gametocyte: ratio of asexual IC50 to gametocyte IC50; for IC50: P. falciparum NF54 stage III-V gametocytes, 72 h, AlamarBlue, mean ± SD, n = 3; for ratio of IC50s, lower IC50 in gametocyte viability assay than in asexual parasite growth assay: asexual versus gametocyte
Description: as §1
Compounds from the Sytravon library (a retired Pharma screening collection that contains a diversity of novel small molecules, with an emphasis on medicinal chemistry-tractable scaffolds) were obtained as powder samples and dissolved in DMSO as […] stock solutions. Compound screening experiments were performed as previously described. In the primary screen, two concentrations for each compound were tested. No technical and biological replicates were involved. In the follow-up confirmation studies, three biological replicates were tested for each compound in both parasite assays. The positive control was 46 µM of Torin 2 and negative control was DMSO. Briefly, 2.5 μL/well incomplete medium was dispensed into each well of 1536-well plates using the Multidrop Combi followed by 23 nL compound transferring using the NX-TR Pintool (WAKO Scientific Solutions, San Diego, CA). Then, 2.5 μL/well of gametocytes was dispensed with a seeding density of 20,000 cells/well using the Multidrop Combi. The assay plates were incubated for 72 h at 37 °C with 5% CO2. After addition of 5 μL/well of 2X AlamarBlue dye (Life Technologies, cat. no. DAL1100), the plates were incubated for 24 h at 37 °C with 5% CO2 and then were read in a fluorescence detection mode (Ex = 525 nm, Em = 598 nm) on a ViewLux plate reader (PerkinElmer).

SMILES | IC50 [1] [µM] | HepG2, IC50 (dash = less than 25% cytotoxicity) [2] | Asexual/Gametocyte [3] | IC50 [3] [µM] | IC50 ([1]; Plasmodium falciparum) [µM] | cytotoxicity at 46 µM [2] [%] | IC50 ([3]; Plasmodium falciparum) [µM] | ratio of IC50s, lower IC50 in gametocyte viability assay than in asexual parasite growth assay [3] | IC50 [2] [µM] | maximum response, HepG2 cytotoxicity [2] [%]
CCOc1ccccc1N(C)C(=O)Cn1cnc2sc(C)c(S(=O)(=O)N3CCC(C)CC3)c2c1=O [NCGC00104044] | 9.94 ± 0.93 | – (Indicates compounds with less than 25% cytotoxicity at up to 46 µM) | 0.26 |  |  |  |  |  |  | 
Cc1cccc2nc(-c3ccccn3)c(Nc3ccccc3)n12 [NCGC00106055] | 4.18 ± 0.68 | – (Indicates compounds with less than 25% cytotoxicity at up to 46 µM) | 1.05 | 3.98 ± 1.12 |  |  |  |  |  | 
COc1ccc(NC(=O)c2ccc3c(c2)N(Cc2cccc(Cl)c2)C(=O)c2ccccc2[S+]3[O-])cc1Cl (centres unmarked) [NCGC00140326] | 13.8 ± 0.82 | – (Indicates compounds with less than 25% cytotoxicity at up to 46 µM) | 0.23 | ~60 |  |  |  |  |  | 
Cc1cc(Nc2ccc(Cl)cc2C)nc(-n2nc(C)cc2C)n1 [NCGC00134136] | 4.12 ± 0.1 | – (Indicates compounds with less than 25% cytotoxicity at up to 46 µM) | 1.60 | 2.57 ± 0.48 |  |  |  |  |  | 
CC(C)c1ccc(Nc2c(-c3ccccn3)nc3ccccn23)cc1 [NCGC00104490] |  |  | 1.72 |  | 2.22 ± 0.35 | < 25 | 1.29 ± 0.29 |  |  | 
Cc1ccc(Nc2cc(C)nc(-n3nc(C)cc3C)n2)cc1 [NCGC00134154] |  |  | 2.38 |  | 2.83 ± 0.31 | < 25 | 1.19 ± 0.34 |  |  | 
CCN(CC)CCCNC(=O)CSc1c2c(nc3cc(Cl)ccc13)CCCC2 [NCGC00110901] | 36.1 ± 15.2 | – (Indicates compounds with less than 25% cytotoxicity at up to 46 µM) | 3.41 | 10.6 ± 1.32 |  |  |  | ~ fourfold |  | 
CN1CCN(c2nc3c(S(=O)(=O)c4ccc(Br)cc4)nnn3c3ccsc23)CC1 [NCGC00123034] | 32.1 ± 12.6 | – (Indicates compounds with less than 25% cytotoxicity at up to 46 µM) | 0.92 | 35.2 ± 4.52 |  |  |  |  |  | 
Cc1cc(Nc2cc(F)ccc2C)nc(-n2nc(C)cc2C)n1 [NCGC00134156] | 3.53 ± 0.27 | – (Indicates compounds with less than 25% cytotoxicity at up to 46 µM) | 1.68 | 2.1 ± 0.73 |  |  |  |  |  | 
CC(C)c1ccccc1Oc1c(C(F)(F)F)oc2c(CN3CCN(C)CC3)c(O)ccc2c1=O [NCGC00100597] | 0.63 ± 0.05 | – (Indicates compounds with less than 25% cytotoxicity at up to 46 µM) | 0.10 | 6.04 ± 1.9 |  |  |  |  |  | 
Cc1ccn2c(Nc3ccc(F)cc3)c(-c3ccccn3)nc2c1 [NCGC00106780] |  |  | 1.94 |  | 3.53 ± 1.21 | < 25 | 1.82 ± 0.11 |  |  | 
CC(C)(C)OC(=O)N1CCC(c2c(C(=O)NCCN3CCC(Cc4ccccc4)CC3)cnn2-c2cccc(Cl)c2)CC1 [NCGC00126892] | 7.49 ± 0.86 |  | 0.24 | 31.3 ± 12.8 |  |  |  |  | 34.4 | 93.0
Cc1cc(Nc2ccc(C(C)C)cc2)nc(-n2nc(C)cc2C)n1 [NCGC00134128] |  |  | 1.64 |  | 1.93 ± 0.13 | < 25 | 1.18 ± 0.17 |  |  | 
CCCCc1ccc(Nc2cc(C)nc(-n3nc(C)cc3C)n2)cc1 [NCGC00134132] |  |  | 1.87 |  | 2.41 ± 0.32 | < 25 | 1.29 ± 0.32 |  |  | 
Cc1ccn2c(Nc3ccccc3C)c(-c3ccccn3)nc2c1 [NCGC00106119] | 4.22 ± 0.29 | – (Indicates compounds with less than 25% cytotoxicity at up to 46 µM) | 1.50 | 2.82 ± 0.3 |  |  |  |  |  | 
CCc1ccc(Oc2c(C(F)(F)F)oc3c(CN4CCN(CC)CC4)c(O)ccc3c2=O)cc1 [NCGC00101506] | 0.54 ± 0.05 | – (Indicates compounds with less than 25% cytotoxicity at up to 46 µM) | 0.11 | 4.82 ± 0.21 |  |  |  |  |  | 
Cc1ccc(C)c(Oc2c(C(F)(F)F)oc3c(CN4CCN(C)CC4)c(O)ccc3c2=O)c1 [NCGC00141020] | 1.07 ± 0.37 | – (Indicates compounds with less than 25% cytotoxicity at up to 46 µM) | 0.22 | 4.86 ± 0.03 |  |  |  |  |  | 
Cc1cc(Nc2ccc(F)cc2)nc(-n2nc(C)cc2C)n1 [NCGC00134124] |  |  | 3.85 |  | 5.96 ± 0.7 | < 25 | 1.55 ± 0.11 | ~ fourfold |  | 
COc1ccccc1Cn1c(CNS(=O)(=O)c2cccc([N+](=O)[O-])c2)nc2cccnc21 [NCGC00134795] | 0.96 ± 0.3 | – (Indicates compounds with less than 25% cytotoxicity at up to 46 µM) | 0.23 | 4.25 ± 0.64 |  |  |  |  |  | 
CC(C)(C)OC(=O)N1CCC(c2c(C(=O)NCCN3CCOCC3)cnn2-c2ccccc2)CC1 [NCGC00127015] | 3.05 ± 0.27 |  | 0.15 | 20.3 ± 0.31 |  |  |  |  | 38.4 | 87.2
O=C(NCc1ccc(Cl)cc1)C1CCCN(C(=O)c2cnn(-c3ccc(F)cc3)c2-n2cccc2)C1 (centres unmarked) [NCGC00124960] | 35.6 ± 1.77 | – (Indicates compounds with less than 25% cytotoxicity at up to 46 µM) | 0.59 | ~60 |  |  |  |  |  | 
Cc1cccc(Nc2cc(C)nc(-n3nc(C)cc3C)n2)c1 [NCGC00134130] |  |  | 2.30 |  | 3.26 ± 0.5 | < 25 | 1.42 ± 0.24 |  |  | 
CC(C)(C)OC(=O)N1CCC(c2c(C(=O)NCCN3CCC(Cc4ccccc4)CC3)cnn2-c2ccccc2)CC1 [NCGC00127017] | 3.44 ± 0.24 |  | 0.29 | 11.9 ± 2.05 |  |  |  |  | 25.3 | 87.6
COc1ccc(Nc2c(-c3ccccn3)nc3ccc(Cl)cn23)cc1 [NCGC00104528] | 13.9 ± 0.93 | – (Indicates compounds with less than 25% cytotoxicity at up to 46 µM) | 1.56 | 8.91 ± 0.2 |  |  |  |  |  | 
Cc1cc(Nc2ccc(F)cc2F)nc(-n2nc(C)cc2C)n1 [NCGC00134158] | 4.7 ± 0.52 | – (Indicates compounds with less than 25% cytotoxicity at up to 46 µM) | 2.26 | 2.08 ± 0.18 |  |  |  |  |  | 
Cc1ccc2nc(-c3ccccn3)c(Nc3ccc(F)cc3)n2c1 [NCGC00106091] | 4.51 ± 1.29 | – (Indicates compounds with less than 25% cytotoxicity at up to 46 µM) | 1.84 | 2.45 ± 0.42 |  |  |  |  |  | 
COc1ccc(CCN2CCC(CNC(=O)c3cnn(-c4ccccc4)c3C3CCN(C(=O)OC(C)(C)C)CC3)CC2)cc1 [NCGC00126987] | 1.47 ± 0.04 |  | 0.05 | 30.6 ± 1.95 |  |  |  |  | 38.6 ± 0.42 | 86.1
